Laboratory results reported in patent US20180305345A1 (priority 2015, published 2018).

What was measured:
786-0 cells = settings: human
[1] = mouse; for Plasma stab. % remaning at 3 hrs: Balb/c, pH 7.4
physchem [2] = settings: buffer
[3] = system: oncolytic HSV-1 expressing GFP in 786-0 cancer cells; assay type: cell-based, human
MG1-eGFP in 786-0 cells = assay type: cell-based, human
[4] = system: ICPO-null HSV-N212eGFP in 786-0 cells; assay type: cell-based, human; settings: MOI 0.01, 48 h after infection
[5] = female, Balb/c, mouse, in vivo
VSVΔ51 in 786-0 cells = assay type: cell-based, human
[6] = system: VSVΔ51-GFP in CT26 murine colon cancer tumors; assay type: cell-based, mouse
VSVΔ51 = settings: cited from earlier work
physchem [7] = settings: buffer, pH 7.4
[8] = system: VSVΔ51-FLuc in CT26 tumors; set-up: species or system Balb/c mice; settings: mouse, in vivo
[9] = system: VSVΔ51-GFP in normal mouse brain, lung and spleens

O=C1OC(c2ccccc2)C(Br)=C1Br (centres unmarked) [Compound 2]
LD50 (786-0 cells): 87 µM
Plasma stab. % remaning at 3 hrs [1]: 0%
half-life (physchem [2]): < 5 min

O=C1C(Cl)=C(Cl)C(O)(c2ccccc2)N1Cc1ccccc1 (centres unmarked) [Compound 15]
LD50 (786-0 cells): 66 µM
Plasma stab. % remaning at 3 hrs [1]: 14.9 ± 7.1%
half-life (physchem [2]): 340 min

O=C1C(Cl)=C(Cl)C(O)N1Cc1ccccc1 (stereo not drawn) [Compound 10, α,β-dichloro-γ-hydroxy-N-benzyl-crotonic lactam]
growth of oncolytic HSV-1 expressing GFP [3]: increased growth
GFP counts, MG1-eGFP (MG1-eGFP in 786-0 cells): increased GFP counts
GFP counts, HSV-N212eGFP [4]: increased GFP counts
LD50 (786-0 cells): 67 µM
Plasma stab. % remaning at 3 hrs [1]: 19.8 ± 0.4%
stability in the plasma assay [1]: remarkably improved stability
dose up to which well tolerated ([5]; ip): ≤ 50 mg/kg
half-life (physchem [2]): 32 min

O=C1OC(c2ccccc2)C(Cl)=C1Cl (centres unmarked) [Compound 1, 3,4-dichloro-5-phenyl-2,5-dihydrofuran-2-one, reference compound]
enhancement of viral titers after pre-incubation of compound in media (VSVΔ51 in 786-0 cells): did not lead to robust enhancement of viral titers
growth of oncolytic HSV-1 expressing GFP [3]: increased growth
VSVΔ51-GFP titers / replication in tumor specimens [6]: enhanced
GFP counts, MG1-eGFP (MG1-eGFP in 786-0 cells): increased GFP counts
GFP counts, HSV-N212eGFP [4]: increased GFP counts
LD50 (786-0 cells): 79 µM
Plasma stab. % remaning at 3 hrs [1]: 0%
dose at which toxicity starts ([5]; ip): ≥ 10 mg/kg
increase of virus output (VSVΔ51): ≤ 1,000 fold
half-life (physchem [2]): < 5 min
half-life (physchem [7]): 28.8 min

O=C1C=CC(O)N1Cc1ccccc1 (centres unmarked) [Compound 16]
LD50 (786-0 cells): >360 µM
Plasma stab. % remaning at 3 hrs [1]: 98.2 ± 3.7%

COC1OC(=O)C(Cl)=C1Cl (centres unmarked) [Compound 6]
LD50 (786-0 cells): 73 µM
Plasma stab. % remaning at 3 hrs [1]: 0%
half-life (physchem [2]): < 5 min

O=C1c2ccccc2C(O)N1Cc1ccccc1 (centres unmarked) [Compound 20]
LD50 (786-0 cells): >360 µM
Plasma stab. % remaning at 3 hrs [1]: 102.9 ± 1.6%

O=C1C(Cl)=C(Cl)C(O)N1CCN1CCOCC1 (centres unmarked) [Compound 28, 3,4-dichloro-5-hydroxy-1-(2-morpholinoethyl)-1H-pyrrol-2(5H)-one]
enhancement of VSVΔ51 output in tumor specimens [6]: ~100 fold
tumor-specific viral replication (luciferase activity, IVIS) [8]: significantly enhanced
GFP counts, MG1-eGFP (MG1-eGFP in 786-0 cells): increased GFP counts
GFP counts, HSV-N212eGFP [4]: increased GFP counts
LD50 (786-0 cells): 153 µM
Plasma stab. % remaning at 3 hrs [1]: 38.9 ± 5.2%
impact on VSVΔ51 in normal tissue specimens [9]: little to no impact
tolerated dose relative to parent compound 1 [5]: > 10 ×
dose up to which well tolerated ([5]; ip): up to 100 mg/kg
half-life (physchem [2]): 96 min

COC1C(Cl)=C(Cl)C(=O)N1Cc1ccccc1 (centres unmarked) [Compound 12]
LD50 (786-0 cells): 206 µM
Plasma stab. % remaning at 3 hrs [1]: 47.6 ± 1.4%
half-life (physchem [2]): 118 min

O=C1C(Cl)=C(c2ccccc2)C(O)N1Cc1ccccc1 (centres unmarked) [Compound 19]
LD50 (786-0 cells): 250 µM

CC(=O)NCCSC1=C(Cl)C(=O)N(Cc2ccccc2)C1O (centres unmarked) [Compound 21]
LD50 (786-0 cells): >90 µM
Plasma stab. % remaning at 3 hrs [1]: 102.7 ± 10.8%

CCC1=C(Cl)C(=O)N(Cc2ccccc2)C1O (centres unmarked) [Compound 18]
LD50 (786-0 cells): >360 µM

C#CCOC1OC(=O)C(Cl)=C1Cl (centres unmarked) [Compound 7]
LD50 (786-0 cells): 52 µM
Plasma stab. % remaning at 3 hrs [1]: 0%
half-life (physchem [2]): < 5 min

O=C1OCC(Cl)=C1Cl [Compound 5, 3,4-Dichloro-5H-furan-2-one]
LD50 (786-0 cells): 41 µM
Plasma stab. % remaning at 3 hrs [1]: 0%
half-life (physchem [2]): < 5 min

CC1=C(C)C(O)N(Cc2ccccc2)C1=O (centres unmarked) [Compound 17]
LD50 (786-0 cells): >360 µM
Plasma stab. % remaning at 3 hrs [1]: 82.0 ± 10.2%

O=c1[nH]n(-c2ccccc2)c(Cl)c1Cl [Compound 8]
LD50 (786-0 cells): >180 µM
Plasma stab. % remaning at 3 hrs [1]: 88.3 ± 9.3%

O=C1OC(c2ccccc2)C(NCc2ccccc2)=C1Cl (centres unmarked) [Compound 3]
LD50 (786-0 cells): 140 µM
Plasma stab. % remaning at 3 hrs [1]: 65.6 ± 6.5%

CC(=O)OC1C(Cl)=C(Cl)C(=O)N1Cc1ccccc1 (centres unmarked) [Compound 13]
LD50 (786-0 cells): 61 µM
Plasma stab. % remaning at 3 hrs [1]: 0%
half-life (physchem [2]): 21 min

O=C1C(Cl)=C(Cl)C(=O)N1Cc1ccccc1 [Compound 14]
LD50 (786-0 cells): 104 µM
Plasma stab. % remaning at 3 hrs [1]: 70.2 ± 8.4%
half-life (physchem [2]): < 5 min

O=C1C(Cl)=C(Cl)C(O)N1CCc1ccccc1 (centres unmarked) [Compound 29, 3,4-dichloro-5-hydroxy-1-phenethyl-1H-pyrrol-2(5H)-one]
GFP counts, MG1-eGFP (MG1-eGFP in 786-0 cells): increased GFP counts
GFP counts, HSV-N212eGFP [4]: increased GFP counts
LD50 (786-0 cells): 74 µM
Plasma stab. % remaning at 3 hrs [1]: 57.6 ± 6.6%
half-life (physchem [2]): 74 min

CC(C)CNC1=C(Cl)C(=O)OC1c1ccccc1 (centres unmarked) [Compound 4]
LD50 (786-0 cells): 90 µM
Plasma stab. % remaning at 3 hrs [1]: 0%

O=C1C(Cl)=C(Cl)C(O)N1C1CC1 (centres unmarked) [Compound 25, 3,4-dichloro-1-cyclopropyl-5-hydroxy-1H-pyrrol-2(5H)-one]
LD50 (786-0 cells): 127 µM
Plasma stab. % remaning at 3 hrs [1]: 54.8 ± 3.6%
half-life (physchem [2]): 53 min

O=C1NC(O)C(Cl)=C1Cl (centres unmarked) [Compound 9]
LD50 (786-0 cells): 148 µM
Plasma stab. % remaning at 3 hrs [1]: 0%
stability in the plasma assay [1]: remarkably improved stability
half-life (physchem [2]): 117 min

O=C1C(Cl)=C(Cl)C(O)N1Cc1ccc(C(F)(F)F)cc1 (centres unmarked) [Compound 40, 3,4-dichloro-5-hydroxy-1-(4-(trifluoromethyl)benzyl)-1H-pyrrol-2(5H)-one]
VSVΔ51-GFP titers / replication in tumor specimens [6]: enhances replication in tumors
LD50 (786-0 cells): 36 µM
Plasma stab. % remaning at 3 hrs [1]: 15.3 ± 2.5%
impact on VSVΔ51 in normal tissue specimens [9]: increases infection and replication in brain tissue
half-life (physchem [2]): 32 min

O=C1C(Cl)=C(Cl)CN1Cc1ccccc1 [Compound 11]
LD50 (786-0 cells): 332 µM
Plasma stab. % remaning at 3 hrs [1]: 42.5 ± 9.6%
half-life (physchem [2]): 64 min
